Key:
Type in all cases: biochemical
C-src = C-src (Homo sapiens, UniProt P12931); assay: C-src kinase inhibition
Protocol: (§1) Btk kinase activity was determined using a time-resolved fluorescence resonance energy transfer (TR-FRET) methodology. Measurements were performed in a reaction volume of 50 μL using 96-well assay plates. […] The reaction was quenched by the addition of 1.2 equivalents of EDTA (relative to divalent cation) in 25 μL of 1× Lance buffer (Perkin-Elmer). Streptavidin-APC (Perkin-Elmer) and Eu-labeled p-Tyr100 antibody (Perkin-Elmer) in 1× Lance buffer were added in a 25 μL volume to give final concentrations of 100 nM and 2.5 nM, respectively, and the mixture was allowed to incubate for one hour. The TR-FRET signal was measured on a multimode plate reader with an excitation wavelength (λEx) of 330 nm and detection wavelengths (λEm) of 615 and 665 nm. Activity was determined by the ratio of the fluorescence at 665 nm to that at 615 nm. For each compound, enzyme activity was measured at various concentrations of compound. Negative control reactions were performed in the absence of inhibitor in replicates of six, and two no-enzyme controls were used to determine baseline fluorescence levels Inhibition constants, Ki(app), were obtained using the program BatchKi (Kuzmic et al. (2000), Anal. Biochem. 286:45-50). IC50s were obtained according to the equation: IC50={Ki(app)/(1+[ATP]/Km^ATP)}+[E]total/2; For all kinases, [ATP]=Km^ATP, [Btk]total=0.5 nM and [Lck]total=6 nM.

Btk = molecular target: T1, Btk (Homo sapiens, UniProt Q06187); assay: Btk in vitro inhibitory activity (one of Methods A, B, C); conditions: determined in one of three in vitro assays (Examples 125-127)
T1 construct: purified from insect cells as a full-length construct containing a N-terminal 6×-His tag; 6xHis (N); host or cells: insect cells (baculovirus Sf21 in Method B)
T1 sequence (Q06187 whole entry): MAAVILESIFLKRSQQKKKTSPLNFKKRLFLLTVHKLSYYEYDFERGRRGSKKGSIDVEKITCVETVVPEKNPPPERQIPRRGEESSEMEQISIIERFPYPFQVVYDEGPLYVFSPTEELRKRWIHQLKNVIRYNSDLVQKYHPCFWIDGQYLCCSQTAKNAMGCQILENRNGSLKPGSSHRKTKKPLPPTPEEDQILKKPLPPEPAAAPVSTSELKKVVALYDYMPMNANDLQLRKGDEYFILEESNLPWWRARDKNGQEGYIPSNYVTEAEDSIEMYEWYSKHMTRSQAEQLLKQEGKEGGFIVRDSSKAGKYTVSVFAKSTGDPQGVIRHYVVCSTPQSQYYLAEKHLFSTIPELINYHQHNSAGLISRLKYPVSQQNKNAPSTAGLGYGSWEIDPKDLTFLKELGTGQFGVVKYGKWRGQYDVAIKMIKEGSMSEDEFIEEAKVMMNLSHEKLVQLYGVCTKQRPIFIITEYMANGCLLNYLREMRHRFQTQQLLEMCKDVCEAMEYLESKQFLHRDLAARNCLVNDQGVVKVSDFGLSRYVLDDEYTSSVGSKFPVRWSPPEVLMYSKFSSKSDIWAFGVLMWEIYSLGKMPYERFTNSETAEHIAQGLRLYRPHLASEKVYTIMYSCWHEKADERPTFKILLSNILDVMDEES
Protocol: The Btk IC50s of compounds disclosed herein was determined in one of the three in vitro assays described in Examples 125-127.
as §1
Kinase activity is measured in vitro using electrophoretic mobility shift assay. The kinase reactions are assembled in a total volume of 25 μL in 384 well plates. […] The reaction is incubated for one hour and is quenched by the addition of 45 μL of termination buffer (100 mM HEPES, pH7.5, 0.01% Triton X-100, 30 mM EDTA). The terminated reactions are analyzed using 12 channel LabChip® 3000 microfluidic detection instrument (Caliper Life Sciences). The enzymatic phosphorylation of the peptide results in a change in net charge, enabling electrophoretic separation of product from substrate peptide. As substrate and product peptides are separated, two peaks of fluorescence are observed. Change in the relative fluorescence intensity of the substrate and product peaks is the parameter measured, reflecting enzyme activity. In the presence of an inhibitor, the ratio between product and substrate is altered: the signal of the product decreases, while the signal of the substrate increases.
Activity in each sample is determined as the product to sum ratio (PSR): P/(S+P), where P is the peak height of the product peptide and S is the peak height of the substrate peptide. For each compound, enzyme activity is measured at various concentrations (12 concentrations of compound spaced by 3× dilution intervals). Negative control samples (0%-inhibition in the absence of inhibitor) and positive control samples (100%-inhibition, in the presence of 20 mM EDTA) are assembled in replicates of four and are used to calculate %-inhibition values for each inhibitor at each concentration. Percent inhibition (Pinh) is determined using following equation: Pinh=(PSR0%−PSRinh)/(PSR0%−PSR100%)*100, where PSRinh is the product sum ratio in the presence of inhibitor, PSR0% is the average product sum ration in the absence of inhibitor and PSR100% is the average product sum ratio in 100%-inhibition control samples;
The IC50 values of inhibitors are determined by 4 parameter sigmoidal dose-response model fitting of the inhibition curves (Pinh versus inhibitor concentration) using XLfit 4 software.
Human Btk kinase (Genbank accession # NP_000052) was purified from insect cells as a full-length construct containing a N-terminal 6×-His tag. Btk kinase activity was determined using a radiometric filter binding assay. Measurements are performed in a low reaction volume 384-well assay plates. […]

EGFR = EGFR (Homo sapiens, UniProt P00533); assay: EGFR kinase inhibition
EGFR, sequence (P00533 25-1210): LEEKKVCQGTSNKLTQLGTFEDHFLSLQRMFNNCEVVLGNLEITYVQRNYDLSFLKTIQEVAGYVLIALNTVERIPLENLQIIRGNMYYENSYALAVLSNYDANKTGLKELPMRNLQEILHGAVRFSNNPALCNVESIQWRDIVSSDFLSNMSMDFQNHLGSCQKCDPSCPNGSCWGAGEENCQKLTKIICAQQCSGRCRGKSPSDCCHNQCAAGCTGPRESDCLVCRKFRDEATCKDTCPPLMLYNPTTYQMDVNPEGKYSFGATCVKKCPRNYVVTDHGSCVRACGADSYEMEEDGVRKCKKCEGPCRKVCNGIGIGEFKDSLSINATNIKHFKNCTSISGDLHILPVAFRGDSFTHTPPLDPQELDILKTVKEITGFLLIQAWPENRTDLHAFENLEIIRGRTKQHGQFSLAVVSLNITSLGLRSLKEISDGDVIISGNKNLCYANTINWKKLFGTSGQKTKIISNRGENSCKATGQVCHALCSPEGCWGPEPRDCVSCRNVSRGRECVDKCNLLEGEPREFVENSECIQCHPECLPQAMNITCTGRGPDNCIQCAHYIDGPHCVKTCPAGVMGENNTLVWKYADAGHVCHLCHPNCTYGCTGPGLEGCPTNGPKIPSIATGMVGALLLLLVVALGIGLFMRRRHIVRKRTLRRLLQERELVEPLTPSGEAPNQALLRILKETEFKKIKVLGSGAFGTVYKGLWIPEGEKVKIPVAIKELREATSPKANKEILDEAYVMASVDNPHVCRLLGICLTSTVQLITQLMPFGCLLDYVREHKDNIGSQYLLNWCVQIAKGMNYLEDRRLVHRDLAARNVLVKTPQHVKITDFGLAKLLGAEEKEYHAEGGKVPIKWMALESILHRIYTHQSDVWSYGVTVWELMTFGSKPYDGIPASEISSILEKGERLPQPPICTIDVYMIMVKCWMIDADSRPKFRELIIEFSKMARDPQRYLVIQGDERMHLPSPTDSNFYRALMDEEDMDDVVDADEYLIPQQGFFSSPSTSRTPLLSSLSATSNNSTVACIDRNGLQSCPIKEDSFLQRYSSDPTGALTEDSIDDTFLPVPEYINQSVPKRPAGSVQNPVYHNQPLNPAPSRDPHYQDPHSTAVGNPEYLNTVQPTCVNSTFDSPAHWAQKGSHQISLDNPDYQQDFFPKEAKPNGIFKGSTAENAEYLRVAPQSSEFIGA

Lyn = Lyn (Homo sapiens, UniProt P07948); assay: Lyn kinase inhibition
Lyn, sequence (P07948 whole entry): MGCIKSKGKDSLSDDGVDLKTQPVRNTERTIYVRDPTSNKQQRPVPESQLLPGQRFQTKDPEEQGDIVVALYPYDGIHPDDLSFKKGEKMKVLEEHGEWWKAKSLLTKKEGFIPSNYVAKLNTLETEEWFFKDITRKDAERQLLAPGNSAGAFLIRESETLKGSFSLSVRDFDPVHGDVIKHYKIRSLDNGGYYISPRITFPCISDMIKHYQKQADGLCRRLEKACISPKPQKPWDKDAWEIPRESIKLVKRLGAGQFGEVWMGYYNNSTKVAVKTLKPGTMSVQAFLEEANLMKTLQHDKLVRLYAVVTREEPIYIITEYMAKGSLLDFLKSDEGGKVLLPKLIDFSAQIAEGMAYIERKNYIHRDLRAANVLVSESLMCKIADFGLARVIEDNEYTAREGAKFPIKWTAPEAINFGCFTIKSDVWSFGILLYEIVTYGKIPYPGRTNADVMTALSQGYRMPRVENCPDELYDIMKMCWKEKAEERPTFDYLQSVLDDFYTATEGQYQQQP

Lck = Lck (Homo sapiens, UniProt P06239); assay: Lck kinase inhibition
Lck, sequence (P06239 whole entry): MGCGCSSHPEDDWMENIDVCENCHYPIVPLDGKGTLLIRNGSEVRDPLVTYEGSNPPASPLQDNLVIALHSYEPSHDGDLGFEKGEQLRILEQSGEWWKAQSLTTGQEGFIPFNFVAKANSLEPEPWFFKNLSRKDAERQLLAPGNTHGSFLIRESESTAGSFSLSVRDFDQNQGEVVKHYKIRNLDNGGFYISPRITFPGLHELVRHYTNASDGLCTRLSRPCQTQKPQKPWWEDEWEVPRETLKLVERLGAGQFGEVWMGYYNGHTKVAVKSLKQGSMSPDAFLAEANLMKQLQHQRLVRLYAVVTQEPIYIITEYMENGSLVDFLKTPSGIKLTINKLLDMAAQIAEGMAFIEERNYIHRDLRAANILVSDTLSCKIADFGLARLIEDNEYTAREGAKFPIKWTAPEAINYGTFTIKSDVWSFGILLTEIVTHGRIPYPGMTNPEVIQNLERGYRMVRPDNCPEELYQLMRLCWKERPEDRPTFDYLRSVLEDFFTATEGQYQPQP
Protocol: as §1

C-src, sequence (P12931 whole entry): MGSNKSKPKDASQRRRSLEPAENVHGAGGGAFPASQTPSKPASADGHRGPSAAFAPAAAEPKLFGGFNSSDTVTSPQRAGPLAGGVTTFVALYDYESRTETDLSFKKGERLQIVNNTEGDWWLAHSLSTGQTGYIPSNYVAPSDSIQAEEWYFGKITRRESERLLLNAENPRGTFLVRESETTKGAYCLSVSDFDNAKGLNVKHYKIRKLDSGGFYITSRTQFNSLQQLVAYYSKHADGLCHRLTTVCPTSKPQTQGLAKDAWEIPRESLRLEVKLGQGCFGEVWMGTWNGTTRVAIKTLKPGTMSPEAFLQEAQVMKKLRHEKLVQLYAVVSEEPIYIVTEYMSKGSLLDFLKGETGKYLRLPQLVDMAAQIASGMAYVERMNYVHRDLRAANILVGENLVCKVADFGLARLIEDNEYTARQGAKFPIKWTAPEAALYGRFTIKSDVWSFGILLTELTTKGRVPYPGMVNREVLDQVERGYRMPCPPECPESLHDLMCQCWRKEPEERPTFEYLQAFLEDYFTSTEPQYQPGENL

Compound | IC50 (C-src) | IC50 (Btk) | IC50 (EGFR) | IC50 (Lyn) | IC50 (Lck)
COc1cc(-c2nn(-c3ccc(N(C)C(=O)/C=C/CN(C)C)cc3)c3ncnc(N)c23)ccc1C [Example 15, (E)-N-(4-(4-amino-3-(3-methoxy-4-methylphenyl)-1H-pyrazolo[3,4-d]pyrimidin-1-yl)phenyl)-4-(dimethylamino)-N-methylbut-2-enamide] | < 100 nM | < 100 nM | 100 to 1000 nM | < 100 nM | < 100 nM
C=CC(=O)N(C)c1ccc(-n2nc(-c3ccc(C)c(OC)c3)c3c(N)ncnc32)cc1 [Example 18, N-(4-(4-amino-3-(3-methoxy-4-methylphenyl)-1H-pyrazolo[3,4-d]pyrimidin-1-yl)phenyl)-N-methylacrylamide] | < 100 nM | < 100 nM | < 100 nM | 100 to 1000 nM | < 100 nM
C=CC(=O)Nc1ccc(-n2nc(-c3ccc(Cl)cc3)c3c(N)ncnc32)cc1 [Example 19, N-(4-(4-amino-3-(4-chlorophenyl)-1H-pyrazolo[3,4-d]pyrimidin-1-yl)phenyl)acrylamide] | < 100 nM | < 100 nM | < 100 nM | < 100 nM | < 100 nM
C=CC(=O)N(C)c1cccc(-n2nc(-c3ccc(Cl)cc3)c3c(N)ncnc32)c1 [Example 22, N-(3-(4-amino-3-(4-chlorophenyl)-1H-pyrazolo[3,4-d]pyrimidin-1-yl)phenyl)-N-methylacrylamide] | 100 to 1000 nM | < 100 nM | < 100 nM | > 1000 nM | > 1000 nM

Second part, the compound after the results:

IC50 (C-src) | IC50 (Btk) | IC50 (EGFR) | IC50 (Lyn) | IC50 (Lck) | Compound
100 to 1000 nM | < 100 nM | – | 100 to 1000 nM | 100 to 1000 nM | CN(C/C=C/C(=O)Nc1cccc(-n2nc(-c3ccc(Cl)cc3)c3c(N)ncnc32)c1)C1CC1 [Example 26, (E)-N-(3-(4-amino-3-(4-chlorophenyl)-1H-pyrazolo[3,4-d]pyrimidin-1-yl)phenyl)-4-(cyclopropyl(methyl)amino)but-2-enamide]
100 to 1000 nM | < 100 nM | > 1000 nM | > 1000 nM | 100 to 1000 nM | CN(C)C/C=C/C(=O)N(C)c1ccc(-n2nc(-c3ccc(Cl)cc3)c3c(N)ncnc32)nc1 [Example 28, (E)-N-(6-(4-amino-3-(4-chlorophenyl)-1H-pyrazolo[3,4-d]pyrimidin-1-yl)pyridin-3-yl)-4-(dimethylamino)-N-methylbut-2-enamide]
< 100 nM | < 100 nM | > 1000 nM | 100 to 1000 nM | 100 to 1000 nM | COc1cc(-c2nn(-c3ccc(N(C)C(=O)/C=C/CN(C)C)cn3)c3ncnc(N)c23)ccc1C [Example 29, (E)-N-(6-(4-amino-3-(3-methoxy-4-methylphenyl)-1H-pyrazolo[3,4-d]pyrimidin-1-yl)pyridin-3-yl)-4-(dimethylamino)-N-methylbut-2-enamide]

— patent US9546172B2, “Pyrazolo[3,4-d]pyrimidine and pyrazolo[2,3-d]pyrimidine compounds as kinase inhibitors” (Pharmacyclics LLC, priority 2011, dated 2017)
